The test system of one assay is caspase-9 and -6. Briefly: Fluorometric caspase-6/9 activity assay in CEM cells. To be noted: cisplatin 2 µg/ml alone, Fig. 5a. The assay is classed as cell-based, human. How it is done:
• (a) P693 and CEM cells were treated with cisplatin (2 µg/ml) in the absence or presence of DEX (1 µM) as indicated. 24 and 48 h following treatment cells were lysed and caspase-9 activity was determined using a fluorescent caspase-9 assay and spectroscopy. • (b) P5 and CEM cells were treated as described above. 24 h after stimulation Apaf-1 was immunoprecipitated from the cell extracts using a […]. Aliquotes of the precipitates were separated by three different gels and analysed by Western blotting using rabbit polyclonal Apaf-1, mAb cytochrome c or caspase-9 antibodies. The antibody heavy chain band (IgGH) ensures equal conditions. […]
• (A) Cell culture. […] The mice were given 0.28 mg/L DEX in drinking water, and the amount of water consumed was monitored. […] The tumour volumes were measured using callipers, and calculated using, as an approximation, the formula for volume of a hemi-ellipsoid: π(width^2 x length)/6. […] Early apoptotic changes were identified by staining of cells with fluoresceinthiocyanate (FITC)-conjugated annexin V and propidium iodide (Becton Dickinson, Heidelberg, Germany) and analysed by flow cytometry (FACScan, Becton Dickinson) as described (Herr et al., EMBO J. 16 (1997), 6200-6208) • (E) Immunohistochemistry. […] Bound antibodies were detected by FITC conjugated anti-mouse or anti-rabbit IgG (Molecular Probes Europe, Leiden, The Netherlands). […]

The next assay has as its system caspase-9. Briefly: Caspase-9 expression in leukemic T cells. To be noted: cisplatin, data not shown. The assay is classed as cell-based, human.

The values below come from EP1283052A1, “Pharmaceutical composition containing caspase-8 and /or caspase-9 useful for overcoming glucocorticoid- and cancer therapy-induced apoptosis of tumours” (Deutsches Krebsforschungszentrum Stiftung des öffentlichen …, priority 2001, dated 2003).

Molecules are shown by their SMILES.

Consider `N.N.[Cl][Pt][Cl]` [cisplatin], for which, in the assay with caspase-9 and -6, the caspase-6/9 activity result is “induced 24 h following cisplatin in P693 and CEM cells with increasing activity at 48 h”. Also, the “expression of caspase-9” value in the assay on caspase-9 is “neither induced”.
